From patent US20080293646A1, “MACROLIDES” (Pfizer Inc, priority 2007, published 2008) come the findings set out here.

Converted amounts (≈) assume the structure as drawn. Counter-ions that a name gives are not always drawn. Like-named read-outs stand apart in the source and are kept apart here.

Data set [1] has as its system H. influenzae Telithromycin (intermediate). Kind of data set: MIC, microtiter broth dilution, telithromycin-intermediate H. influenzae. It is filed as cell-based, Haemophilus influenzae. The settings on record: for MIC50 / MIC90: Haemophilus influenzae. (In general: Dilution methods test growth across graded concentrations, often in twofold steps.)
The next data set deals with M. catarrhalis. Kind of data set: MIC, microtiter broth dilution, M. catarrhalis. The format is cell-based, Moraxella catarrhalis. Particulars: for MIC50 / MIC90: Moraxella catarrhalis.
A further data set deals with CYP3A (Homo sapiens, UniProt P08684). In words: CYP3A time-dependent inhibition in human liver microsomes (midazolam probe). Particulars: pooled human liver microsomes, pH 7.4, probe midazolam (30 μM, 1'-hydroxymidazolam formation). (Microsomes from liver hold many membrane-bound enzymes, among them those of drug oxidation.)
The nature of data set [2]: HLM ER (human liver microsomes extraction ratio). It is filed as in vitro ADME. Particulars: 1 μM compound, NADPH, 37° C., <0.32 is lower limit of assay. On the procedure:
HLM ER: (human liver microsomes extraction ratio). This assay measures clearance of compound over time in the human liver microsome system due to NADPH-dependent oxidative metabolism. […] Assay Procedure: […] The reaction mixture was pre-incubated at 37° C. for 5 minutes before adding betanicotinamide adenine dinucleotide phosphate—reduced tetrasodium salt (NADPH) (1.0 mM). Aliquots of the incubation mixture were removed at 0, 5, 10, 20, 30 and 45 minutes. The aliquots were quenched in acetonitrile containing internal standard. Samples were centrifuged and the resulting supernatant analyzed by liquid chromatography/mass spectrometry (LC/MS/MS), with a Sciex API4000 using multiple reaction monitoring optimized for each test compound. […] The first order disappearance rate constant was determined for each incubation by plotting natural log(LN) substrate concentration (peak area ratio, drug/internal standard) against incubation time and determining the slope of the regression line (k), using data where an accurate first order decay curve could be obtained. Predicted hepatic clearances (CLH) and extraction ratios were calculated according to the following equations: […] where the following constants were: Liver Weight=21 g/kg [human] Microsomal Protein in Incubation=1.52 mg/mL Liver Protein=45 mg/g [human] Liver Blood Flow (QH)=20 mL/min/kg [human]

The next data set concerns S. pneumoniae ermB. Kind of data set: MIC, microtiter broth dilution, S. pneumoniae ermB isolates. The format is cell-based, Streptococcus pneumoniae. Particulars: for MIC50 / MIC90: Streptococcus pneumoniae.
A further data set deals with S. pyogenes mefA. Kind of data set: MIC, microtiter broth dilution, S. pyogenes mefA isolates. It is filed as cell-based, Streptococcus pyogenes. The settings on record: for MIC50 / MIC90: Streptococcus pyogenes.
The test system of another data set is S. pneumoniae mefA. Kind of data set: MIC, microtiter broth dilution, S. pneumoniae mefA isolates. The format is cell-based, Streptococcus pneumoniae. Particulars: for MIC50 / MIC90: Streptococcus pneumoniae.
In data set [3] the test system is H. influenzae Telithromycin (susceptible). Kind of data set: MIC, microtiter broth dilution, telithromycin-susceptible H. influenzae. It is filed as cell-based, Haemophilus influenzae. The settings on record: for MIC50 / MIC90: Haemophilus influenzae.
Another data set has as its system L. pneumophila. In words: microbe, parasite or virus in culture. The settings on record: for MIC Range: L. pneumophila, n=10 isolates; for MIC50 / MIC90: Legionella pneumophila. The format is cell-based, Legionella pneumophila.
The subject of the next data set is S. pneumoniae emB/mefA. In words: MIC, microtiter broth dilution, S. pneumoniae ermB/mefA isolates. The format is cell-based, Streptococcus pneumoniae. Particulars: for MIC50 / MIC90: Streptococcus pneumoniae.
[4] abbreviates: H. influenzae telithromycin (intermediate), n=12 isolates.
Setting [5] is: S. pneumoniae ermB, n=34 isolates.
Setting [6] is: S. pyogenes mefA, n=23 isolates.
[7] abbreviates: S. pneumoniae mefA, n=39 isolates.
Where [8] appears, read: H. influenzae telithromycin (susceptible), n=82 isolates.
[9] abbreviates: S. pneumoniae emB/mefA, n=45 isolates.
[10] abbreviates: S. pyogenes mefA, n=23 isolates, read-out: MIC50.
[11] abbreviates: S. pyogenes mefA, n=23 isolates, read-out: MIC90.
[12] abbreviates: H. influenzae telithromycin (intermediate), n=12 isolates, read-out: MIC50.
The mark [13] stands for this setting: H. influenzae telithromycin (intermediate), n=12 isolates, read-out: MIC90.
Where [14] appears, read: M. catarrhalis, n=30 isolates, read-out: MIC90.
[15] abbreviates: S. pneumoniae ermB, n=34 isolates, read-out: MIC50.
The mark [16] stands for this setting: S. pneumoniae ermB, n=34 isolates, read-out: MIC90.
Setting [17] is: S. pneumoniae mefA, n=39 isolates, read-out: MIC90.
[18] abbreviates: H. influenzae telithromycin (susceptible), n=82 isolates, read-out: MIC50.
Where [19] appears, read: H. influenzae telithromycin (susceptible), n=82 isolates, read-out: MIC90.
The mark [20] stands for this setting: S. pneumoniae emB/mefA, n=45 isolates, read-out: MIC50.
Where [21] appears, read: S. pneumoniae emB/mefA, n=45 isolates, read-out: MIC90.

The term kinact denotes the rate constant of inactivation at saturating inhibitor.

Chain of CYP3A (P08684 2-503): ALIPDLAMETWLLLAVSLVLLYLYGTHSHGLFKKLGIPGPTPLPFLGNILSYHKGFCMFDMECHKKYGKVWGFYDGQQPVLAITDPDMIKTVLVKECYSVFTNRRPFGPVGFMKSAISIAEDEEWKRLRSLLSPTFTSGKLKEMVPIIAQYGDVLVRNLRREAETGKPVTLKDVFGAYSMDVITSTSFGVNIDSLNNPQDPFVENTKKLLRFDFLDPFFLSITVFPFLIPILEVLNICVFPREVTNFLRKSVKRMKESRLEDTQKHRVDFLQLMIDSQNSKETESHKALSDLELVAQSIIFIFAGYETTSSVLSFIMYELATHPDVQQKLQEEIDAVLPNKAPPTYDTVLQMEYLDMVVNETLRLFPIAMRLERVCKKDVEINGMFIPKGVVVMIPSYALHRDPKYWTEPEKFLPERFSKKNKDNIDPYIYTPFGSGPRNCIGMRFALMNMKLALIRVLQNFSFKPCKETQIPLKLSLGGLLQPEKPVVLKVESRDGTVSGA

For `CC[C@H]1OC(=O)[C@H](C)C(=O)[C@H](C)[C@@H](O[C@@H]2O[C@H](C)C[C@H](N(C)C)[C@H]2O)[C@](C)(OC)C[C@@H](C)C(=O)[C@H](C)[C@H]2N(C3CN(Cc4c(O)cnc5cccnc45)C3)C(=O)O[C@]12C` [Example 1, 3-Descladinosyl-11,12-dideoxy-6-O-methyl-3-oxo-12,11-(oxycarbonyl-(1-((3-hydroxy-[1,5]-naphthyridin-4-yl)methyl)-azetidin-3-yl)-imino)-erythromycin A Fumarate], the “MIC Range” value was 4 to 8 µg/mL in [1] (setting [4]); 0.008 to 0.25 µg/mL against M. catarrhalis (M. catarrhalis, n=30 isolates); “≦0.0625-2 μg/mL” with S. pneumoniae ermB (setting [5]); 0.5 to 1 µg/mL in the data set with S. pyogenes mefA (setting [6]); “≦0.06-1 μg/mL” in the data set with S. pneumoniae mefA (setting [7]); 1 to 8 µg/mL in data set [3] (setting [8]). Moreover, the “MIC Range” value against L. pneumophila is 0.008 to 0.03 µg/mL; against S. pneumoniae emB/mefA (setting [9]), “≦0.0625-1 μg/mL”. Further, the MIC50 was 4 µg/mL in data set [1]; 0.03 µg/mL against M. catarrhalis; no more than 0.0625 µg/mL against S. pneumoniae ermB; 0.5 µg/mL with S. pyogenes mefA; 0.125 µg/mL against S. pneumoniae mefA; 2 µg/mL in data set [3]. The MIC50 was determined as 0.016 µg/mL in the data set on L. pneumophila and 0.5 µg/mL against S. pneumoniae emB/mefA. The MIC90 stood at 8 µg/mL in data set [1]; 0.06 µg/mL in the data set with M. catarrhalis; 1 µg/mL with S. pneumoniae ermB; 1 µg/mL with S. pyogenes mefA; 0.5 µg/mL against S. pneumoniae mefA; 4 µg/mL in data set [3]. In addition, the values for the MIC90 against L. pneumophila and in the data set with S. pneumoniae emB/mefA were 0.03 µg/mL and 1 µg/mL, respectively. The Ki on CYP3A was determined as 24 µM. The kinact at CYP3A is 0.0004 s⁻¹. Moreover, the “HLM ER” value in [2] is on record as less than 0.32.

Take `CC1(C)S[C@@H]2[C@H](NC(=O)[C@H](N)c3ccc(O)cc3)C(=O)N2[C@H]1C(=O)O` [amoxicillin]: the “MIC Range” value in the data set with S. pyogenes mefA (setting [6]) is 0.004 to 0.03 µg/mL. For the same molecule, the MIC50 in the data set with S. pyogenes mefA (setting [10]) amounted to 0.008 µg/mL (≈ 0.0219 µM). In addition, in the data set with S. pyogenes mefA (setting [11]), the MIC90 stood at 0.016 µg/mL (≈ 0.0438 µM).

`CC[C@H]1OC(=O)[C@H](C)[C@@H](O[C@H]2C[C@@](C)(OC)[C@@H](O)[C@H](C)O2)[C@H](C)[C@@H](O[C@@H]2O[C@H](C)C[C@H](N(C)C)[C@H]2O)[C@](C)(O)C[C@@H](C)CN(C)[C@H](C)[C@@H](O)[C@]1(C)O` [azithromycin]: in the data set with L. pneumophila, the “MIC Range” value was in the range of 0.03 to 0.06 µg/mL, the MIC50 worked out at 0.06 µg/mL (≈ 0.0801 µM) and the MIC90 is 0.06 µg/mL (≈ 0.0801 µM).

For the molecule `CC[C@H]1OC(=O)[C@H](C)[C@@H](O[C@H]2C[C@@](C)(OC)[C@@H](O)[C@H](C)O2)[C@H](C)[C@@H](O[C@@H]2O[C@H](C)C[C@H](N(C)C)[C@H]2O)[C@](C)(O)C[C@@H](C)C(=O)[C@H](C)[C@@H](O)[C@]1(C)O` [erythromycin], the “MIC Range” value in [1] (setting [4]) lay within 8 to 16 µg/mL; in the data set on M. catarrhalis (M. catarrhalis, n=30 isolates) it was 0.03 to 1 µg/mL; against S. pyogenes mefA (setting [6]) it was 8 to 32 µg/mL; in the data set with S. pneumoniae mefA (setting [7]), 2 to 16 µg/mL; in data set [3] (setting [8]), 1 to 16 µg/mL. Besides, the MIC50 was 16 µg/mL (≈ 21.8 µM) in data set [1] (setting [12]); 0.25 µg/mL (≈ 0.341 µM) with M. catarrhalis (M. catarrhalis, n=30 isolates, read-out: MIC50); greater than 64 µg/mL with S. pneumoniae ermB (setting [15]); 8 µg/mL (≈ 10.9 µM) in the data set with S. pyogenes mefA (setting [10]); 8 µg/mL (≈ 10.9 µM) with S. pneumoniae mefA (S. pneumoniae mefA, n=39 isolates, read-out: MIC50); 8 µg/mL (≈ 10.9 µM) in data set [3] (setting [18]). Further, in the data set with S. pneumoniae emB/mefA (setting [20]), the MIC50 is greater than 64 µg/mL. Besides, the MIC90 in data set [1] (setting [13]) is 16 µg/mL (≈ 21.8 µM); with M. catarrhalis (setting [14]), 0.25 µg/mL (≈ 0.341 µM); in the data set with S. pneumoniae ermB (setting [16]), greater than 64 µg/mL; with S. pyogenes mefA (setting [11]), 16 µg/mL (≈ 21.8 µM); in the data set on S. pneumoniae mefA (setting [17]), 16 µg/mL (≈ 21.8 µM); in [3] (setting [19]) it was 16 µg/mL (≈ 21.8 µM). Further, in the data set with S. pneumoniae emB/mefA (setting [21]), the MIC90 was greater than 64 µg/mL.

`CC[C@H]1OC(=O)[C@H](C)C(=O)[C@H](C)[C@@H](O[C@@H]2O[C@H](C)C[C@H](N(C)C)[C@H]2O)[C@](C)(OC)C[C@@H](C)C(=O)[C@H](C)[C@H]2N(CCCCn3cnc(-c4cccnc4)c3)C(=O)O[C@]12C` [telithromycin]: the “MIC Range” value was 8 µg/mL (≈ 9.85 µM) in [1] (setting [4]); 0.006 to 0.5 µg/mL with M. catarrhalis (M. catarrhalis, n=30 isolates); “≦0.0625-1 μg/mL” in the data set on S. pneumoniae ermB (setting [5]); 0.25 to 2 µg/mL in the data set with S. pyogenes mefA (setting [6]); “≦0.06-0.5 μg/mL” with S. pneumoniae mefA (setting [7]); 0.25 to 4 µg/mL in data set [3] (setting [8]). Besides, the entries for the “MIC Range” value with L. pneumophila and against S. pneumoniae emB/mefA (setting [9]) were 0.016 to 0.03 µg/mL and “≦0.0625-1 μg/mL”, respectively. The MIC50 in [1] (setting [12]) was 8 µg/mL (≈ 9.85 µM); in the data set on M. catarrhalis, 0.125 µg/mL (≈ 0.154 µM); in the data set on S. pneumoniae ermB (setting [15]), no more than 0.0625 µg/mL; with S. pyogenes mefA (setting [10]) it was 0.5 µg/mL (≈ 0.616 µM); in the data set with S. pneumoniae mefA it was 0.125 µg/mL (≈ 0.154 µM); in data set [3] (setting [18]), 1 µg/mL (≈ 1.23 µM). For the same molecule, the MIC50 in the data set with L. pneumophila amounted to 0.016 µg/mL (≈ 0.0197 µM); with S. pneumoniae emB/mefA (setting [20]), 0.5 µg/mL (≈ 0.616 µM). Moreover, the MIC90 turned out to be 8 µg/mL (≈ 9.85 µM) in data set [1] (setting [13]); 0.25 µg/mL (≈ 0.308 µM) in the data set on M. catarrhalis (setting [14]); 0.5 µg/mL (≈ 0.616 µM) in the data set on S. pneumoniae ermB (setting [16]); 0.5 µg/mL (≈ 0.616 µM) in the data set with S. pyogenes mefA (setting [11]); 0.5 µg/mL (≈ 0.616 µM) in the data set on S. pneumoniae mefA (setting [17]); 4 µg/mL (≈ 4.93 µM) in data set [3] (setting [19]). The MIC90 with L. pneumophila worked out at 0.016 µg/mL (≈ 0.0197 µM); in the data set on S. pneumoniae emB/mefA (setting [21]), 0.5 µg/mL (≈ 0.616 µM).
